Tested on: SARS-CoV-2 Wuhan reference strain
Assay type: cell-based

SMILES	comparative efficiency in inhibiting SARS-CoV-2 replication
CCC(CC)COC(=O)[C@H](C)N[P@](=O)(OC[C@H]1O[C@@](C#N)(c2ccc3c(N)ncnn23)[C@H](O)[C@@H]1O)Oc1ccccc1 [remdesivir]	the most efficient molecule
CC(C)c1nc(CN(C)C(=O)N[C@H](C(=O)N[C@@H](Cc2ccccc2)C[C@H](O)[C@H](Cc2ccccc2)NC(=O)OCc2cncs2)C(C)C)cs1 [ritonavir]	AB-00011778 was more efficient than the ritonavir molecule
